Like-named read-outs stand apart in the source and are kept apart here.
How the values were obtained:
[1] = target: T1, Recombinant BTK^WT kinase (Homo sapiens, UniProt Q06187); assay: BTK WT binding affinity (LanthaScreen TR-FRET); details: Kinase Tracer 236, 5 h incubation
T1 construct: purchased Invitrogen
Experimental: BTK^WT binding affinity of each compound tested was determined using a time-resolved fluorescence resonance energy transfer (TR-FRET) methodology. 2.5 nM Recombinant BTK^WT kinase, varying concentrations of inhibitor, 2 nM LanthaScreen™ Eu anti-His Antibody and 15 nM Kinase Tracer 236 was incubated in 1× LanthaScreen™ Kinase Buffer A for 5 h. Recombinant BTK kinase and all LanthaScreen™ components were purchased from Invitrogen. Measurements were performed in a reaction volume of 30 μL using half-area 96-well assay plates. The TR-FRET signal was read on a plate reader with an excitation wavelength of 340 nm and detection wavelengths of 615 and 665 nm. Binding affinity was determined for each compound by measuring TR-FRET signal at various concentrations of compound and plotting the relative fluorescence units against the inhibitor concentration to estimate the IC50 from log[Inhibitor] vs response using the Variable Slope model in Graphpad prism from Graphpad software (San Diego, Calif.).

[2] = target: T2, Recombinant BTK^C481S kinase (Homo sapiens, UniProt Q06187, C481S); assay: BTK C481S binding affinity (LanthaScreen TR-FRET); details: Kinase Tracer 236, 5 h incubation
T2 construct: purchased SignalChem
T2 sequence (Q06187 whole entry C481S): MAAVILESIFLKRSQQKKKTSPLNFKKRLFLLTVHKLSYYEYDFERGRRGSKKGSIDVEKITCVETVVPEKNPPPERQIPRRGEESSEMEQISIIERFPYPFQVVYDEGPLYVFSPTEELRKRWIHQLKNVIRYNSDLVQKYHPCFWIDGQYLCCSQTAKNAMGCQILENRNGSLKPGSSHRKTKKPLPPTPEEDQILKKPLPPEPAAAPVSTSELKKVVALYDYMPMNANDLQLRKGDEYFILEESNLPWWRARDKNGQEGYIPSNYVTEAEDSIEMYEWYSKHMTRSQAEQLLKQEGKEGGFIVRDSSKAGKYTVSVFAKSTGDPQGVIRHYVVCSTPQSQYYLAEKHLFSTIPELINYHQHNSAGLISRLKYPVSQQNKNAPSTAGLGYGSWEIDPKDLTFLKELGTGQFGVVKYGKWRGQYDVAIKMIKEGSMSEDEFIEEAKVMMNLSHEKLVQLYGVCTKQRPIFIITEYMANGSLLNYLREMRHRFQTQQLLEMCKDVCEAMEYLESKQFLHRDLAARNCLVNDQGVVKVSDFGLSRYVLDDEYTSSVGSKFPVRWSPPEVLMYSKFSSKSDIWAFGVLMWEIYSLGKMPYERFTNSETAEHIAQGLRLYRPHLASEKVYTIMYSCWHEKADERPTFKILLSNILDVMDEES
Experimental: BTK^C481S binding affinity of each compound tested was determined using a time-resolved fluorescence resonance energy transfer (TR-FRET) methodology. 5 nM Recombinant BTK^WT kinase, varying concentrations of inhibitor, 2 nM LanthaScreen™ Eu anti-His Antibody and 30 nM Kinase Tracer 236 was incubated in 1× LanthaScreen™ Kinase Buffer A for 5 h. Recombinant BTK^C481S kinase was purchased from SignalChem and all LanthaScreen™ components were purchased from Invitrogen. Measurements were performed in a reaction volume of 30 μL using half-area 96-well assay plates. The TR-FRET signal was read on a plate reader with an excitation wavelength of 340 nm and detection wavelengths of 615 and 665 nm. Binding affinity was determined for each compound by measuring TR-FRET signal at various concentrations of compound and plotting the relative fluorescence units against the inhibitor concentration to estimate the IC50 from log[Inhibitor] vs response using the Variable Slope model in Graphpad prism from Graphpad software (San Diego, Calif.).

Recombinant EGFR = target: T3, Recombinant EGFR (Homo sapiens, UniProt P00533); assay: EGFR binding affinity (LanthaScreen TR-FRET); details: Kinase Tracer 199, 5 h incubation
T3 construct: purchased Invitrogen
T3 sequence (P00533 25-1210): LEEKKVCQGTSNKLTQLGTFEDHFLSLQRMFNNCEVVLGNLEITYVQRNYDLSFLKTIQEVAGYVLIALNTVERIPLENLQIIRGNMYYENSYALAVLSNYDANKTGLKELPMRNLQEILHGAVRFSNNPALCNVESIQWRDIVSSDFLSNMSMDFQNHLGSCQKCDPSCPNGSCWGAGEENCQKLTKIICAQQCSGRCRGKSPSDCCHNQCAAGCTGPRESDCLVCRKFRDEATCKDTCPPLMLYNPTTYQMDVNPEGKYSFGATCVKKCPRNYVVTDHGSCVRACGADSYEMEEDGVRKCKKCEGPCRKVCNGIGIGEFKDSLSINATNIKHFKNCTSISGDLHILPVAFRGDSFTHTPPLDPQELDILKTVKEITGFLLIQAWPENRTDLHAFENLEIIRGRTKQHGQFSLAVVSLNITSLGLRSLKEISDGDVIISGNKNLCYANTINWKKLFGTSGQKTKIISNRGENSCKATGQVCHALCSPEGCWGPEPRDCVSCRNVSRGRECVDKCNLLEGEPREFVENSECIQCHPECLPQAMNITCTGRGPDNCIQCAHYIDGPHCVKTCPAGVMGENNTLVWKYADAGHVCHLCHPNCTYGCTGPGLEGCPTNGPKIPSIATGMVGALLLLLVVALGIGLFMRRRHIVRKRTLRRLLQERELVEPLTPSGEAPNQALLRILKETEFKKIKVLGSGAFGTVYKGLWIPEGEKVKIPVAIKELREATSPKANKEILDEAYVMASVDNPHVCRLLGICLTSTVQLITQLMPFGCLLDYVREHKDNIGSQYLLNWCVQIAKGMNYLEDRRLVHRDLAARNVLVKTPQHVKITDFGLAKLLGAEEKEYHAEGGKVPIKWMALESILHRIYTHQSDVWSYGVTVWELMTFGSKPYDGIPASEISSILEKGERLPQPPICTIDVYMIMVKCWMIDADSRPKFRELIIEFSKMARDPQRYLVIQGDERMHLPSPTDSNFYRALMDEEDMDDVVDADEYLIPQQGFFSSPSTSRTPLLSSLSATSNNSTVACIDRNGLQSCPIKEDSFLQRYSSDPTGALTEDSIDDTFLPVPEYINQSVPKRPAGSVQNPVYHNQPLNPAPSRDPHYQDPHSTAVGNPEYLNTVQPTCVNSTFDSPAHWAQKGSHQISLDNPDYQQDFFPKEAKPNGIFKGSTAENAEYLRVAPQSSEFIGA
Experimental: EGFR binding affinity was determined using a time-resolved fluorescence resonance energy transfer (TR-FRET) methodology. […] Recombinant EGFR and all LanthaScreen™ components were purchased from Invitrogen. Measurements were performed in a reaction volume of 30 μL using half-area 96-well assay plates. […] Binding affinity was determined for each compound by measuring TR-FRET signal at various concentrations of compound and plotting the relative fluorescence units against the inhibitor concentration to estimate the IC50 from log[Inhibitor] vs response using the Variable Slope model in Graphpad prism from Graphpad software (San Diego, Calif.).

[3] = system: OCI-Ly10 human DLBCL cells; assay: OCI-Ly10 anti-proliferative activity (Resazurin); type: cell-based; details: OCI-Ly10 cells, 72 h compound treatment, Resazurin, read-out: Proliferation Assay OCI-Ly10-20% FBS
Experimental: Compounds were assayed for effects on the growth of OCI-Ly10 human DLBCL cells that are dependent on NFκB signalling. […] Cells were then plated at 7.5×10^3 cells per well in 96-well plates in varying concentrations of compound and incubated for 72 h at 37° C. An additional plate of cells to be used as the Day 0 read was seeded without compound addition, Resazurin was added to each well, incubated for 5 h and the fluorescence measured at 590 nm. After 72 h of compound treatment, Resazurin was added to each well of the compound treated plates, incubated for 5 h and the fluorescence measured at 590 nm. The IC50 was then calculated by subtracting the average Day 0 value from each well value from the treated plates, each treatment was then calculated as a percentage of the DMSO control and the percentages plotted against the inhibitor concentration to estimate the IC50 from log[Inhibitor] vs response using the Variable Slope model in Graphpad prism from Graphpad software (San Diego, Calif.).

T1 sequence (Q06187 whole entry): as the sequence (Q06187 whole entry C481S) above, with S481C counted along it

Row | Compound | IC50 [1] | IC50 [2] | IC50 (Recombinant EGFR) | IC50 ([3]; Homo sapiens, OCI-Ly10, 72 h) | IC50 [3]
1 | COc1ccccc1C(=O)NCc1ccc(-c2nn(C3CCC(OCc4ccccc4)CC3)c(N)c2C(N)=O)cc1 (mixture of isomers) [Example 28, 5-Amino-1-(4-benzyloxycyclohexyl)-3-[4-[[(2-methoxybenzoyl)amino]methyl]phenyl]pyrazole-4-carboxamide] | < 0.01 µM | < 0.01 µM | 0.1 to 1 µM | 0.01 to 0.1 µM | 
2 | COc1ccccc1C(=O)NCc1ccc(-c2nn(C3CCC(C(=O)O)CC3)c(N)c2C(N)=O)cc1 (mixture of isomers) [Example 74, 4-[5-amino-4-carbamoyl-3-[4-[[(2-methoxybenzoyl)amino]methyl]phenyl]pyrazol-1-yl]cyclohexanecarboxylic acid] | < 0.01 µM | < 0.01 µM | 0.1 to 1 µM | 1 to 10 µM | 
3 | CONC(=O)C1CCC(n2nc(-c3ccc(CNC(=O)c4ccccc4OC)cc3)c(C(N)=O)c2N)CC1 (mixture of isomers) [Example 75, 5-amino-3-[4-[[(2-methoxybenzoyl)amino]methyl]phenyl]-1-[4-(methoxycarbamoyl)cyclohexyl]pyrazole-4-carboxamide] | < 0.01 µM | < 0.01 µM | 0.1 to 1 µM | 0.1 to 1 µM | 
4 | COc1ccccc1C(=O)NCc1ccc(-c2nn(C3CCOC(C)C3)c(N)c2C(N)=O)cc1 (mixture of isomers) [Example 85, 5-amino-3-[4-[[(2-methoxybenzoyl)amino]methyl]phenyl]-1-(2-methyltetrahydropyran-4-yl)pyrazole-4-carboxamide] | < 0.01 µM | < 0.01 µM | 0.1 to 1 µM | 0.01 to 0.1 µM | 
5 | COc1ccccc1C(=O)NCc1ccc(-c2nn(C3CCOCC3C)c(N)c2C(N)=O)cc1 (mixture of isomers) [Example 86, 5-amino-3-[4-[[(2-methoxybenzoyl)amino]methyl]phenyl]-1-(3-methyltetrahydropyran-4-yl)pyrazole-4-carboxamide] | < 0.01 µM | < 0.01 µM | 0.1 to 1 µM | 0.1 to 1 µM | 
6 | COc1ccc(F)cc1C(=O)NCc1ccc(-c2nn(C(C)C3CCOC3)c(N)c2C(N)=O)cc1 (mixture of isomers) [Example 172, 5-amino-3-[4-[[(5-fluoro-2-methoxy-benzoyl)amino]methyl]phenyl]-1-(1-tetrahydrofuran-3-ylethyl)pyrazole-4-carboxamide] | < 0.01 µM | < 0.01 µM | 1 to 10 µM | 0.1 to 1 µM | 
7 | COc1ccc(F)cc1C(=O)NCc1ccc(-c2nn(C(C3CCOC3)C(F)(F)F)c(N)c2C(N)=O)cc1 (mixture of isomers) [Example 175, 5-amino-3-[4-[[(5-fluoro-2-methoxy-benzoyl)amino]methyl]phenyl]-1-(2,2,2-trifluoro-1-tetrahydrofuran-3-yl-ethyl)pyrazole-4-carboxamide] | 0.01 to 0.1 µM | 0.01 to 0.1 µM | 1 to 10 µM | 0.1 to 1 µM | 
8 | COc1ccccc1C(=O)NCc1ccc(-c2nn([C@@H]3CCC[C@H]3O)c(N)c2C(N)=O)cc1 (relative stereo) [Example 2, 5-Amino-1-[(1R*,2R*)-2-hydroxycyclopentyl]-3-[4-[[(2-methoxybenzoyl)amino]methyl]phenyl]pyrazole-4-carboxamide] | < 0.01 µM | < 0.01 µM |  | 0.1 to 1 µM | 
9 | COc1ccccc1C(=O)NCc1ccc(-c2nn([C@H]3CC[C@@H](O)C3)c(N)c2C(N)=O)cc1 (relative stereo) [Example 20, 5-Amino-1-[(1S*,3R*)-3-hydroxycyclopentyl]-3-[4-[[(2-methoxybenzoyl)amino]methyl]phenyl]pyrazole-4-carboxamide] | < 0.01 µM | < 0.01 µM | 0.1 to 1 µM | 0.01 to 0.1 µM | 
10 | COc1ccccc1C(=O)NCc1ccc(-c2nn([C@H]3CC[C@H](Cl)C3)c(N)c2C(N)=O)cc1 (relative stereo) [Example 37, 5-amino-1-[(1S*,3S*)-3-chlorocyclopentyl]-3-[4-[[(2-methoxybenzoyl)amino]methyl]phenyl]pyrazole-4-carboxamide] | < 0.01 µM | < 0.01 µM | 0.1 to 1 µM | 0.01 to 0.1 µM | 
11 | COc1ccccc1C(=O)NCc1ccc(-c2nn(C3CCC(C)(O)CC3)c(N)c2C(N)=O)cc1 (single isomer, unassigned) [Example 27, 5-Amino-1-(4-hydroxy-4-methyl-cyclohexyl)-3-[4-[[(2-methoxybenzoyl)amino]methyl]phenyl]pyrazole-4-carboxamide] | < 0.01 µM |  | 0.1 to 1 µM |  | 0.01 to 0.1 µM
12 | COc1ccccc1C(=O)NCc1ccc(-c2nn(C[C@H]3CCCNC3)c(N)c2C(N)=O)cc1 [Example 42, 5-amino-3-[4-[[(2-methoxybenzoyl)amino]methyl]phenyl]-1-[[(3S)-3-piperidyl]methyl]pyrazole-4-carboxamide] | > 10 µM |  | > 10 µM |  | 
13 | COc1ccccc1C(=O)NCc1ccc(-c2nn(C3CCCC3)c(Nc3ccccc3)c2C(N)=O)cc1 [Example 56, 5-anilino-1-cyclopentyl-3-[4-[[(2-methoxybenzoyl)amino]methyl]phenyl]pyrazole-4-carboxamide] | 0.1 to 1 µM | 0.1 to 1 µM |  | 1 to 10 µM | 
14 | COc1ccccc1C(=O)NCc1ccc(-c2nn(-c3nc(C)cs3)c(N)c2C(N)=O)cc1 [Example 67, 5-amino-3-[4-[[(2-methoxybenzoyl)amino]methyl]phenyl]-1-(4-methylthiazol-2-yl)pyrazole-4-carboxamide] | 0.1 to 1 µM |  |  |  | 
15 | CNC(=O)c1c(-c2ccc(CNC(=O)c3ccccc3OC)cc2)nn(C2CCCC2)c1N [Example 69, 5-amino-1-cyclopentyl-3-[4-[[(2-methoxybenzoyl)amino]methyl]phenyl]-N-methyl-pyrazole-4-carboxamide] | > 10 µM |  |  |  | 
16 | COc1ccccc1C(=O)NCc1c(F)cc(-c2nn(C3CCOCC3)c(N)c2C(N)=O)cc1F [Example 132, 5-amino-3-[3,5-difluoro-4-[[(2-methoxybenzoyl)amino]methyl]phenyl]-1-tetrahydropyran-4-yl-pyrazole-4-carboxamide] | 0.1 to 1 µM | 0.01 to 0.1 µM | > 10 µM |  | 
17 | COc1ccc(F)cc1C(=O)NCc1c(F)cc(-c2nn(C3CCOCC3)c(N)c2C(N)=O)cc1F [Example 133, 5-amino-3-[3,5-difluoro-4-[[(5-fluoro-2-methoxy-benzoyl)amino]methyl]phenyl]-1-tetrahydropyran-4-yl-pyrazole-4-carboxamide] | 0.1 to 1 µM | 0.01 to 0.1 µM | > 10 µM |  | 
18 | COc1ccccc1C(=O)NC(CO)c1ccc(-c2nn(C3CCCC3)c(N)c2C(N)=O)cc1C (stereo not shown) [Example 185, 5-amino-1-cyclopentyl-3-[4-[2-hydroxy-1-[(2-methoxybenzoyl)amino]ethyl]-3-methyl-phenyl]pyrazole-4-carboxamide] | 1 to 10 µM | 1 to 10 µM | 1 to 10 µM |  | 
19 | COc1ccc(F)cc1C(=O)NCc1ccc(-c2nn(C(C3CC3)C(F)(F)F)c(N)c2C(N)=O)cc1 (stereo not shown) [Example 188, 5-amino-1-(1-cyclopropyl-2,2,2-trifluoro-ethyl)-3-[4-[[(5-fluoro-2-methoxy-benzoyl)amino]methyl]phenyl]pyrazole-4-carboxamide] | < 0.01 µM | < 0.01 µM | 1 to 10 µM |  | 

— US11826351B2, “Compounds useful as kinase inhibitors” (Loxo Oncology, Inc., priority 2015, dated 2023)
